This test in a line: Blocker Index (BI), expert graders, isovaleric acid malodorous swatch. Further details: key: Blocker Index, expert-graded scale 0 to 3 (0 = clean swatch anchor). The text has this:
Blocker materials suitable for use in consumer products of the present invention are chosen for their ability to decrease malodor, while not interfering with perception of a fragrance. Material selection is done by assigning two indices to a test sample material from two reference scales in order to rank odor strengths. The two reference scales are the Fragrance Fidelity Index (FFI) scale and the Blocker Index (BI) scale. The FFI ranks the ability of the test sample material to impart a perceivable odor which could cause interference when combined with another fragrance and the BI ranks the ability of the test sample material to reduce malodor perception. The two methods for assigning the indices to a test sample on the FFI and the BI reference scales are given below.
The first step in the method for assigning a BI to a test sample material on the BI reference scale is to create the BI reference swatches. […] Fabric swatches for this test are white knit polycotton (4 inch×4 inch) swatches from EMC ordered as PC 50/50. The supplier is instructed to strip the swatches first, stripping involves washing twice with a fragrance-free detergent and rinsing three times.
The BI scale contains one clean swatch with no malodor applied. […] These solutions are pipetted to the middle of the swatches. […] After drying for 30 minutes in a vented hood, the swatches are wrapped in aluminum foil to prevent odor contamination to the treated swatch. A clean untreated swatch is also included as the lowest anchor point of reference for malodor strength on the BI scale. The BI reference scale swatches should be used within 0.5 to 12 hours and discarded after 12 hours. The swatches are used as scale anchor points when graders evaluate a test sample(s) and are assigned a Blocker Index (BI) as show in Table 12.
The perfumer/expert grader is asked to rank order swatches according to a scale between 0 and 3.
To evaluate the BI, the test material is applied to a malodorous swatch to determine how well the test material blocks the malodor. […] After drying the malodorous swatch a known concentration of test material solution, between 1 ppm and 100 ppm is pipetted onto the malodorous swatch. […] It is sometimes necessary to evaluate several levels of the test material between about 1 and about 100 ppm to determine the BI.
At least two perfumers/expert graders are used to assign the BI to the test sample. […] The test sample swatch is assigned a BI at or between numbers on the BI in table.

[1] abbreviates: Conc 10 ppm of test material on isovaleric acid malodorous swatch.
Setting [2] is: Conc 50 ppm of test material on isovaleric acid malodorous swatch.
[3] abbreviates: test material Conc 10 ppm on isovaleric acid swatch.
The mark [4] stands for this setting: test material Conc 50 ppm on isovaleric acid swatch.

As for `O=C1CCC2CCCCC2O1` (stereo not shown) [3,4,4a,5,6,7,8,8a-octahydrochromen-2-one], the BI is 2.0 under setting [1] and 2.0 under setting [2].

In the case of `CCOC(=O)OC1C(C)CCC(C)C1C` (stereo not shown) [Material 1005], the BI under setting [2] was found to be 2.6.

Turning to `CC(C)(C)C1CCCCC1` [4-tert-butyl cyclohexane], the BI runs as follows: under setting [1], 2.0; under setting [2], 2.0.

In turn, `CC1(C)C2CCC3(C2)C1C(=O)CCC3(C)C` (stereo not shown) [Material 1149] yielded a BI under setting [1] of 1.5 and a BI under setting [2] of 2.3.

Turning to `CCCCCCCCCCCCCCCC(=O)OC` [Material 109], the BI under setting [1] is given as 2.0.

On to `CCCCCCCCCCCC(=O)OCC` [Material 391], for which the BI under setting [2] amounted to 2.2.

On to `CCC(=O)OC1CC2C3C=CCC3C1C2(C)C` (stereo not shown) [8,8-dimethyl-3a,4,5,6,7,7a-hexahydro-1H-4,7-methanoinden-6-yl propionate], for which the BI is on record as 1.5 under setting [3] and 2.2 under setting [4].

As to `CCC(O)COC1CCCCC1C(C)(C)C` (stereo not shown) [Material 677], the BI was determined as 2.3 under setting [1] and 2.0 under setting [2].

`CC(CCO)CCc1ccccc1` (stereo not shown) [Material 962] displayed a BI under setting [1] of 2.3 and a BI under setting [2] of 1.7.

In the case of `C=CC(C)=CCC=C(C)C` [Material 524], the BI under setting [2] is on record as 2.8.

With `CC1(C)CCc2ccc(CCC=O)cc21` [Material 261, 3-(3,3-dimethyl-2,3-dihydro-1H-inden-5-yl)propanal], the BI by setting is: under setting [3], 1.5; under setting [4], 2.7.

Consider `C=C1CCC2OC2(C)CCC2C1CC2(C)C` (stereo not shown) [Material 1148], for which, under setting [2], the BI worked out at 2.3.

For `COC(=O)OC1CC/C=C\CCC1` (stereo not shown) [Material 1139], the BI is, setting by setting: under setting [1], 2.0; under setting [2], 2.7.

The compound `CCCCCCCCCCCCO` [Material 174] came in with a BI under setting [2] of 2.3.

On to `CC1CCC2(C(C)C)CC(C)OC2C1` (stereo not shown) [4,8-dimethyl-1-(methylethyl)-7-oxybiciclo[4.3.0]nonane], for which the BI reads like this: under setting [3], 2.0; under setting [4], 2.2.

On to `CC(=O)OC1CC2CC1C1CC=CC21` (stereo not shown) [Material 281], for which the BI by setting is: under setting [1], 2.0; under setting [2], 2.0.

Regarding `CC1(C)CCc2ccc(CCC=O)cc21` [Material 261], the BI turned out to be 1.8 under setting [1] and 1.3 under setting [2].

On to `CCCCCCCCCCCO` [Undecanol], for which the BI under setting [2] was determined as 2.3.

As to `CC(=O)OCCCCCCC(C)C` [Material 204], the BI stood at 2.0 under setting [1] and 2.7 under setting [2].

The values above are taken from US20170249408A1, “Antiperspirant and Deodorant Compositions Comprising Malodor Reduction Compositions” (The Procter & Gamble Company, priority 2015, published 2017).
